Measured values as given in PubChem BioAssay AID720672 (NMMLSC, 2013).
Activity calls are given as the source filed them. The rule behind the calls is not given here.

Molecular target: Lethal factor (Bacillus anthracis) (UniProt P15917)
Experiment: Bacillus anthracis LF protease inhibitors, dose response, biochemical, multiplex microsphere (AID 720672)
Conditions: multiplex microsphere LF protease substrate cleavage, flow cytometry

Lethal factor (Bacillus anthracis), sequence (P15917 whole entry, looked up): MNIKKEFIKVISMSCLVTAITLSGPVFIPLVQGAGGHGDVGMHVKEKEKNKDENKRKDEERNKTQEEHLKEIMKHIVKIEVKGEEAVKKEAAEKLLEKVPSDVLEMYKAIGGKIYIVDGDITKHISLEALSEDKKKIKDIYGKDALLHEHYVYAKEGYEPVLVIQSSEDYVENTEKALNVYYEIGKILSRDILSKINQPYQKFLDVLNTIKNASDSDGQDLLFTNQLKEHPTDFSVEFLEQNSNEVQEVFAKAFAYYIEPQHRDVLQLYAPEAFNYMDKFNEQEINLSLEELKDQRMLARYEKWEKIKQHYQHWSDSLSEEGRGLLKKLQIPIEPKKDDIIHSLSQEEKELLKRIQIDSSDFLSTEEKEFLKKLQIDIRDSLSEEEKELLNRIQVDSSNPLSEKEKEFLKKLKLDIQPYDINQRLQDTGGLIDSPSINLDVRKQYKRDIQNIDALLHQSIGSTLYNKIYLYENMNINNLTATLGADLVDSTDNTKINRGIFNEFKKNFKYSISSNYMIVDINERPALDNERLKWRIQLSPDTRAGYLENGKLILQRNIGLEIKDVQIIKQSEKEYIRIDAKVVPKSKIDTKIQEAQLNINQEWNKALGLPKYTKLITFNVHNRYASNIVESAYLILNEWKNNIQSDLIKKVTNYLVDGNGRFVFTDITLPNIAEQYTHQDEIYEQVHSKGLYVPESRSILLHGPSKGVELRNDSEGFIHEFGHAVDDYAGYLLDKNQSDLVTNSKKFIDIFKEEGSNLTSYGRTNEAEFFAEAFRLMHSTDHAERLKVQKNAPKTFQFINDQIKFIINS

CCCNC(=O)Nc1ccc2nc(-c3ccccc3)c(-c3ccccc3)nc2c1 was tested. Which IC50 did it give?
The IC50 was > 20 µM (inactive).

For Cc1ccc(-c2nc3nc(-c4ccc(S(C)(=O)=O)cc4)cn3nc2-c2ccc(C)cc2)cc1, which IC50 is on record?
Its IC50 is > 20 µM (inactive).

For CC(C)OC(=O)Nc1ccc2nc(-c3cccs3)c(-c3cccs3)nc2c1, which IC50 is on record?
The IC50 was > 20 µM (inactive).

With Fc1ccc(-c2nc3nc(-c4cccc(F)c4)cn3nc2-c2ccc(F)cc2)cc1 as the compound, how does the IC50 read?
Its IC50 is 6.7 µM.

How did the IC50 turn out when CCOC(=O)Nc1ccc2nc(-c3cccs3)c(-c3cccs3)nc2c1 was run?
Its IC50 is > 20 µM (inactive).

Which IC50 does the source give for O=C(Nc1ccc2nc(-c3ccccc3)c(-c3ccccc3)nc2c1)C1CCCC1 here?
The IC50 was > 20 µM (inactive).

How did the IC50 turn out when COc1ccc(-c2nc3nc(-c4ccc(OC(F)(F)F)cc4)cn3nc2-c2ccc(OC)cc2)cc1 was run?
The IC50 was 3.7 µM.

Which IC50 does the source give for CCCS(=O)(=O)Nc1ccc2nc(-c3ccccc3)c(-c3ccccc3)nc2c1 here?
Its IC50 is > 20 µM (inactive).

With O=C(Nc1ccc2nc(-c3cccs3)c(-c3cccs3)nc2c1)NC1CCCC1 as the compound, how does the IC50 read?
Its IC50 is > 20 µM (inactive).

With CCNC(=O)Nc1ccc2nc(-c3cccs3)c(-c3cccs3)nc2c1 as the compound, how does the IC50 read?
The IC50 was 16.3 µM.

For O=C(Nc1ccc2nc(-c3ccccc3)c(-c3ccccc3)nc2c1)C1CCC1, which IC50 is on record?
Its IC50 is > 20 µM (inactive).

Which IC50 does the source give for COc1cccc(-c2cn3nc(-c4ccc(F)cc4)c(-c4ccc(F)cc4)nc3n2)c1 here?
The IC50 was 7.5 µM.

For CCCOC(=O)Nc1ccc2nc(-c3cccs3)c(-c3cccs3)nc2c1, which IC50 is on record?
The IC50 was > 20 µM (inactive).

Which IC50 does the source give for N#Cc1ccc(-c2cn3nc(-c4ccc(F)cc4)c(-c4ccc(F)cc4)nc3n2)cc1 here?
The IC50 was > 20 µM (inactive).

With O=S(=O)(Nc1ccc2nc(-c3cccs3)c(-c3cccs3)nc2c1)C1CC1 as the compound, how does the IC50 read?
Its IC50 is > 20 µM (inactive).

For CCOC(=O)Nc1ccc2nc(-c3ccccc3)c(-c3ccccc3)nc2c1, which IC50 is on record?
Its IC50 is > 20 µM (inactive).

How did the IC50 turn out when Cc1ccc(-c2nc3nc(-c4ccc(OC(F)(F)F)cc4)cn3nc2-c2ccc(C)cc2)cc1 was run?
The IC50 was > 20 µM (inactive).

With Fc1ccc(-c2cn3nc(-c4ccc(F)cc4)c(-c4ccc(F)cc4)nc3n2)cc1 as the compound, how does the IC50 read?
The IC50 was 4 µM.

Which IC50 does the source give for CS(=O)(=O)c1ccc(-c2cn3nc(-c4ccccc4)c(-c4ccccc4)nc3n2)cc1 here?
Its IC50 is > 20 µM (inactive).

With COc1ccc(-c2cn3nc(-c4ccc(F)cc4)c(-c4ccc(F)cc4)nc3n2)c(OC)c1 as the compound, how does the IC50 read?
The IC50 was 2.9 µM.

COc1ccc(-c2nc3nc(-c4cccc(OC)c4)cn3nc2-c2ccc(OC)cc2)cc1 was tested. Which IC50 did it give?
Its IC50 is 10.1 µM.

O=C(Nc1ccc2nc(-c3cccs3)c(-c3cccs3)nc2c1)C1CCC1 was tested. Which IC50 did it give?
The IC50 was > 20 µM (inactive).

For FC(F)(F)Oc1ccc(-c2cn3nc(-c4ccccc4)c(-c4ccccc4)nc3n2)cc1, which IC50 is on record?
The IC50 was 17.9 µM.

COc1ccc(-c2nc3nc(-c4ccc(F)cc4)cn3nc2-c2ccc(OC)cc2)cc1 was tested. Which IC50 did it give?
The IC50 was 3.1 µM.

For CCCOC(=O)Nc1ccc2nc(-c3ccccc3)c(-c3ccccc3)nc2c1, which IC50 is on record?
The IC50 was > 20 µM (inactive).

With CC(C)CS(=O)(=O)Nc1ccc2nc(-c3cccs3)c(-c3cccs3)nc2c1 as the compound, how does the IC50 read?
The IC50 was > 20 µM (inactive).

Which IC50 does the source give for CC(C)NC(=O)Nc1ccc2nc(-c3ccccc3)c(-c3ccccc3)nc2c1 here?
Its IC50 is > 20 µM (inactive).

For CCCS(=O)(=O)Nc1ccc2nc(-c3cccs3)c(-c3cccs3)nc2c1, which IC50 is on record?
Its IC50 is > 20 µM (inactive).

N#Cc1ccc(-c2cn3nc(-c4ccccc4)c(-c4ccccc4)nc3n2)cc1 was tested. Which IC50 did it give?
Its IC50 is > 20 µM (inactive).

How did the IC50 turn out when O=C(Nc1ccc2nc(-c3cccs3)c(-c3cccs3)nc2c1)C1CC1 was run?
The IC50 was > 20 µM (inactive).

Which IC50 does the source give for COc1ccc(-c2nc3nc(-c4ccccc4)cn3nc2-c2ccc(OC)cc2)cc1 here?
The IC50 was 6.3 µM.

Which IC50 does the source give for CCCCOC(=O)Nc1ccc2nc(-c3cccs3)c(-c3cccs3)nc2c1 here?
Its IC50 is 16.4 µM.

For O=C(Nc1ccc2nc(-c3cccs3)c(-c3cccs3)nc2c1)C1CCCC1, which IC50 is on record?
Its IC50 is > 20 µM (inactive).

For Fc1ccc(-c2cn3nc(-c4ccccc4)c(-c4ccccc4)nc3n2)cc1, which IC50 is on record?
Its IC50 is > 20 µM (inactive).

CC(C)(C)C(=O)Nc1ccc2nc(-c3ccccc3)c(-c3ccccc3)nc2c1 was tested. Which IC50 did it give?
Its IC50 is > 20 µM (inactive).

COc1ccc(-c2nc3nc(-c4ccc(S(C)(=O)=O)cc4)cn3nc2-c2ccc(OC)cc2)cc1 was tested. Which IC50 did it give?
Its IC50 is > 20 µM (inactive).

How did the IC50 turn out when CCNC(=S)Nc1ccc2nc(-c3ccccc3)c(-c3ccccc3)nc2c1 was run?
The IC50 was > 20 µM (inactive).

For COc1ccccc1-c1cn2nc(-c3ccc(F)cc3)c(-c3ccc(F)cc3)nc2n1, which IC50 is on record?
The IC50 was 5.4 µM.

CCC(=O)Nc1ccc2nc(-c3cccs3)c(-c3cccs3)nc2c1 was tested. Which IC50 did it give?
Its IC50 is > 20 µM (inactive).

How did the IC50 turn out when Fc1ccc(-c2nc3nc(-c4ccccc4)cn3nc2-c2ccc(F)cc2)cc1 was run?
The IC50 was 9.6 µM.

For CS(=O)(=O)c1ccc(-c2cn3nc(-c4ccc(F)cc4)c(-c4ccc(F)cc4)nc3n2)cc1, which IC50 is on record?
Its IC50 is > 20 µM (inactive).

O=C(Nc1ccc2nc(-c3ccccc3)c(-c3ccccc3)nc2c1)OCc1ccccc1 was tested. Which IC50 did it give?
The IC50 was > 20 µM (inactive).

With COc1ccccc1-c1cn2nc(-c3ccccc3)c(-c3ccccc3)nc2n1 as the compound, how does the IC50 read?
The IC50 was > 20 µM (inactive).

With CCCCOC(=O)Nc1ccc2nc(-c3ccccc3)c(-c3ccccc3)nc2c1 as the compound, how does the IC50 read?
Its IC50 is > 20 µM (inactive).

COc1ccc(-c2nc3nc(-c4cccc(F)c4)cn3nc2-c2ccc(OC)cc2)cc1 was tested. Which IC50 did it give?
Its IC50 is 5.5 µM.

Which IC50 does the source give for CCS(=O)(=O)Nc1ccc2nc(-c3ccccc3)c(-c3ccccc3)nc2c1 here?
Its IC50 is > 20 µM (inactive).

How did the IC50 turn out when Fc1ccc(-c2nc3nc(-c4ccc(OC(F)(F)F)cc4)cn3nc2-c2ccc(F)cc2)cc1 was run?
The IC50 was > 20 µM (inactive).

For COc1ccc(-c2nc3nc(-c4ccccc4OC)cn3nc2-c2ccc(OC)cc2)cc1, which IC50 is on record?
The IC50 was 6.1 µM.

For O=C(Nc1ccc2nc(-c3ccccc3)c(-c3ccccc3)nc2c1)C1CC1, which IC50 is on record?
The IC50 was > 20 µM (inactive).

How did the IC50 turn out when COc1ccc(-c2cn3nc(-c4ccc(OC)cc4)c(-c4ccc(OC)cc4)nc3n2)cc1 was run?
Its IC50 is > 20 µM (inactive).

Which IC50 does the source give for COc1cccc(-c2cn3nc(-c4ccccc4)c(-c4ccccc4)nc3n2)c1 here?
Its IC50 is 15.2 µM.

Which IC50 does the source give for CC(C)OC(=O)Nc1ccc2nc(-c3ccccc3)c(-c3ccccc3)nc2c1 here?
The IC50 was > 20 µM (inactive).

With Fc1cccc(-c2cn3nc(-c4ccccc4)c(-c4ccccc4)nc3n2)c1 as the compound, how does the IC50 read?
The IC50 was 11.5 µM.

How did the IC50 turn out when CC(C)(C)NC(=O)Nc1ccc2nc(-c3ccccc3)c(-c3ccccc3)nc2c1 was run?
The IC50 was > 20 µM (inactive).

Which IC50 does the source give for CC(=O)Nc1ccc2nc(-c3ccccc3)c(-c3ccccc3)nc2c1 here?
The IC50 was > 20 µM (inactive).

CCC(=O)Nc1ccc2nc(-c3ccccc3)c(-c3ccccc3)nc2c1 was tested. Which IC50 did it give?
The IC50 was > 20 µM (inactive).

For CC(Oc1ccccc1)C(=O)Nc1ccc2nc(-c3ccccc3)c(-c3ccccc3)nc2c1 (configuration not stated), which IC50 is on record?
Its IC50 is > 20 µM (inactive).

With O=C(Nc1ccc2nc(-c3ccccc3)c(-c3ccccc3)nc2c1)C1CCCCC1 as the compound, how does the IC50 read?
Its IC50 is > 20 µM (inactive).

Which IC50 does the source give for COc1ccc(-c2cn3nc(-c4ccc(C)cc4)c(-c4ccc(C)cc4)nc3n2)cc1 here?
The IC50 was > 20 µM (inactive).

With CC(C)CS(=O)(=O)Nc1ccc2nc(-c3ccccc3)c(-c3ccccc3)nc2c1 as the compound, how does the IC50 read?
Its IC50 is > 20 µM (inactive).

Which IC50 does the source give for COc1ccccc1-c1cn2nc(-c3ccc(C)cc3)c(-c3ccc(C)cc3)nc2n1 here?
The IC50 was 12.9 µM.

For COc1ccc(-c2nc3nc(-c4ccc(C#N)cc4)cn3nc2-c2ccc(OC)cc2)cc1, which IC50 is on record?
The IC50 was > 20 µM (inactive).

For O=C(Nc1ccc2nc(-c3ccccc3)c(-c3ccccc3)nc2c1)NC1CCCC1, which IC50 is on record?
Its IC50 is > 20 µM (inactive).

For COc1ccc(-c2cn3nc(-c4ccc(C)cc4)c(-c4ccc(C)cc4)nc3n2)c(OC)c1, which IC50 is on record?
Its IC50 is > 20 µM (inactive).

For Cc1ccc(-c2cn3nc(-c4ccc(C)cc4)c(-c4ccc(C)cc4)nc3n2)cc1, which IC50 is on record?
The IC50 was 5.1 µM.

COc1ccc(-c2cn3nc(-c4ccccc4)c(-c4ccccc4)nc3n2)c(OC)c1 was tested. Which IC50 did it give?
Its IC50 is > 20 µM (inactive).

With COc1cccc(-c2cn3nc(-c4ccc(C)cc4)c(-c4ccc(C)cc4)nc3n2)c1 as the compound, how does the IC50 read?
Its IC50 is 4.3 µM.

For O=C(Nc1ccc2nc(-c3cccs3)c(-c3cccs3)nc2c1)OCc1ccccc1, which IC50 is on record?
The IC50 was > 20 µM (inactive).

How did the IC50 turn out when CC(C)NC(=O)Nc1ccc2nc(-c3cccs3)c(-c3cccs3)nc2c1 was run?
The IC50 was > 20 µM (inactive).

For COC(=O)Nc1ccc2nc(-c3ccccc3)c(-c3ccccc3)nc2c1, which IC50 is on record?
Its IC50 is > 20 µM (inactive).

COc1ccc(-c2nc3nc(-c4ccc(C)cc4)cn3nc2-c2ccc(OC)cc2)cc1 was tested. Which IC50 did it give?
The IC50 was > 20 µM (inactive).

Cc1ccc(-c2nc3nc(-c4ccc(F)cc4)cn3nc2-c2ccc(C)cc2)cc1 was tested. Which IC50 did it give?
The IC50 was 5.9 µM.

How did the IC50 turn out when Cc1ccc(-c2cn3nc(-c4ccc(F)cc4)c(-c4ccc(F)cc4)nc3n2)cc1 was run?
Its IC50 is 7.2 µM.

COc1ccc(-c2cn3nc(-c4ccc(F)cc4)c(-c4ccc(F)cc4)nc3n2)cc1 was tested. Which IC50 did it give?
Its IC50 is 6.5 µM.

Which IC50 does the source give for Clc1ccc(-c2cn3nc(-c4ccccc4)c(-c4ccccc4)nc3n2)c(Cl)c1 here?
Its IC50 is > 20 µM (inactive).

Cc1ccc(-c2nc3nc(-c4ccccc4)cn3nc2-c2ccc(C)cc2)cc1 was tested. Which IC50 did it give?
Its IC50 is 6.8 µM.

How did the IC50 turn out when Cc1ccc(-c2nc3nc(-c4cccc(F)c4)cn3nc2-c2ccc(C)cc2)cc1 was run?
The IC50 was 3.7 µM.

With COC(=O)Nc1ccc2nc(-c3cccs3)c(-c3cccs3)nc2c1 as the compound, how does the IC50 read?
Its IC50 is > 20 µM (inactive).

How did the IC50 turn out when CCNC(=O)Nc1ccc2nc(-c3ccccc3)c(-c3ccccc3)nc2c1 was run?
Its IC50 is > 20 µM (inactive).

Which IC50 does the source give for O=S(=O)(Nc1ccc2nc(-c3ccccc3)c(-c3ccccc3)nc2c1)C1CC1 here?
The IC50 was > 20 µM (inactive).

How did the IC50 turn out when Cc1ccc(-c2nc3nc(-c4ccc(C#N)cc4)cn3nc2-c2ccc(C)cc2)cc1 was run?
Its IC50 is > 20 µM (inactive).

With COc1ccc(-c2nc3nc(-c4ccc(OC)cc4OC)cn3nc2-c2ccc(OC)cc2)cc1 as the compound, how does the IC50 read?
The IC50 was > 20 µM (inactive).
